Reference: BindingDB's records for doi:10.1021/acsmedchemlett.1c00211 (Biogen, 2021)

What was measured:
[1] = target: Autotaxin (ENPP2) (Rattus norvegicus) (UniProt Q64610); test: Inhibition of LPA in rat plasma after 18 hrs by LC-MS/MS analysis
[2] = target: Autotaxin (ENPP2) (Homo sapiens) (UniProt Q13822); test: Inhibition of LPA in human plasma after 18 hrs by LC-MS/MS analysis

Compound C[C@@H](c1ccc2ccc(O[C@H]3CC[C@@H](C(F)(F)F)CC3)c(C(F)(F)F)c2c1)N1C2CCC1CC(C(=O)O)C2 (some centres not stated) has an IC50 [1] of 47 nM and an IC50 [2] of 53 nM.
